# Test results published in article PMC9883540, “Study on pharmacokinetic interactions between SHR2554 and itraconazole in healthy subjects: A single‐center, open‐label phase I trial” (Cancer Medicine, 2022).
# Several values for one entry are separate records, joined by “and”; a condition that tells them apart may be missing. Equal values may be shown once. Entries after “also recorded” stand apart in the source; their conditions may differ. Read-outs that look alike come from different tables or passages of the source.
# How the values were obtained:
# [1] = in vivo
# Description: Eighteen volunteers were recruited for the study. The subjects were orally administered SHR2554 at a 50 mg daily dose (Day 1); then, they were orally administered itraconazole 200 mg Quaque Die (QD) for 4 days (Days 4–7) followed by co‐administration of itraconazole 200 mg and SHR2554 50 mg (Day 8). They took itraconazole 200 mg QD for 4 days (Days 9–12). All subjects were fasted for at least 10 h, and they ate a standard meal in 30 min before drug administration. Water was forbidden within 1 h after drug administration, and the subjects were fasted for at least 4 h after drug administration.
# Safety evaluation included adverse events, laboratory tests, physical examination, measurement of vital signs, 12‐lead electrocardiogram, etc. All abnormal and clinically significant laboratory results were followed up until they returned to normal.
# [2] = Pharmacokinetic interaction study of itraconazole on SHR2554, plasma SHR2554 by HPLC-MS/MS; assay type: in vivo, human; settings: for AUC0–t / AUC0–∞ / C max: plasma SHR2554, mean ± SD
# Description: Eighteen volunteers were recruited for the study. […] The samples of venous blood (4 ml) were collected into heparinized Vacutainer™ tubes and mixed gently. […] Thereafter, plasma was separated by centrifugation (2000g at 4°C for 10 min) within 1 h of sample collection and then stored at −80°C before analyses. The plasma concentrations of SHR2554 were determined by a validated method with sensitivity and specificity using high‐performance liquid chromatography–tandem mass spectrometry (HPLC‐MS/MS) by Shanghai InnoStar Bio‐tech Co. Ltd. Blood samples were pretreated by protein precipitation with acetonitrile. Biological sample analysis was performed using SHR149633 (free base) as an internal standard. Separation of SHR2554 was carried out using a […] ZORBAX Extend‐C18 column (2.1 × 50 mm, 1.8 μm), and analytes were detected on an AB SCIEX QTRAP 5500 mass spectrometer. The assay was linear over the range of 1–2000 ng·ml^−1. […] Plasma samples are stable under various conditions. The PK parameters were evaluated using Phoenix WinNonlin v8.1. Statistical analysis was performed with SAS v9.2 (SAS Institute). Descriptive statistics and tabulation of PK parameters for analytes were performed, and mean concentration‐time curves were plotted. After natural log transformation, the PK parameters were fitted with a mixed‐effects model. In the mixed‐effects model analysis, medication (itraconazole combined with SHR2554 or SHR2554 alone) was used as a fixed effect, and the participants in the model fitting were used as random effects. The corrected least‐square mean difference and 90% confidence interval (CI) between the administration of a single drug (SHR2554) alone and a combination drug (co‐administration of SHR2554 and itraconazole) were obtained. The corrected least‐square mean difference and its 90% confidence interval were converted to the adjusted geometric mean ratios (GMRs) (co‐administration of SHR2554 and itraconazole/SHR2554 alone) and its 90% confidence interval by taking the antilog.
# [3] = cited from earlier work
# CYP3A4 [4] = settings: sponsor's preclinical studies, no method or reference given; cited from earlier work
# Caco‐2 cell model = test system: Caco‐2 cell model; parameters: method as in PMID 34498807; settings: preclinical results; cited from earlier work
# CYP3A4 [5] = settings: preclinical test, no method or reference given; cited from earlier work
# tumor = settings: same dose; no reference given; cited from earlier work
# [6] = test system: wild‐type and mutant EZH2 enzymes; settings: no method or reference given; cited from earlier work
# [7] = test system: cell H3K27Me3 and cell proliferation; parameters: method as in PMID 34503063; settings: cited from earlier work
# [8] = cited from earlier work; remark: listed apart in the source
# CYP3A4 [9] = settings: preclinical test, no method or reference given; cited from earlier work; remark: listed apart in the source
# [10] = cited from earlier work; remark: listed apart in the source
# [11] = SHR2554 50 mg co-administered with itraconazole 200 mg (Day 8), fed, mean ± SD
# [12] = SHR2554 50 mg co-administered with itraconazole 200 mg (Day 8), fed
# [13] = SHR2554 50 mg single oral dose alone (Day 1), fed, mean ± SD
# [14] = SHR2554 50 mg single oral dose alone (Day 1), fed
# [15] = SHR2554 50 mg, itraconazole 200 mg, 90% CI in brackets
# [16] = completed or ongoing clinical trials of SHR2554, reference not given
smiles,measurement,setting,value
CCc1c(N(CC)C2CCOCC2)cc2oc(CN3CCCCC3)cc2c1C(=O)NCc1c(C)cc(C)[nH]c1=O [SHR2554],"Itraconazole‐related TEAEs, Cases",[1],2
same,"Itraconazole‐related TEAEs, Number of subjects (%)",[1],2 (11.1)
same,"SHR2554‐related TEAEs, Cases",[1],12
same,"SHR2554‐related TEAEs, Number of subjects (%)",[1],9 (50.0)
same,"TEAEs, Cases",[1],13
same,"TEAEs, Number of subjects (%)",[1],9 (50.0)
same,"TEAEs, Total",[1],9 (50.0)
same,TEAEs: All kinds of inspection,[1],8 (44.4)
same,TEAEs: Appendicitis,[1],0
same,TEAEs: Blood in the urine,[1],2 (11.1)
same,TEAEs: Cardiac organ diseases,[1],1 (5.6)
same,TEAEs: Hematuria,[1],1 (5.6)
same,TEAEs: High blood uric acid,[1],1 (5.6)
same,TEAEs: Increased blood bilirubin,[1],0
same,TEAEs: Increased blood triglyceride,[1],4 (22.2)
same,TEAEs: Increased heart rate,[1],1 (5.6)
same,TEAEs: Infectious diseases,[1],0
same,TEAEs: Kidney and urinary system diseases,[1],2 (11.1)
same,TEAEs: Positive bacterial tests,[1],2 (11.1)
same,TEAEs: Positive urine leukocyte,[1],0
same,TEAEs: Rash,[1],0
same,TEAEs: Skin and subcutaneous tissue diseases,[1],0
same,TEAEs: Spermaturia,[1],1 (5.6)
same,TEAEs: Supraventricular extrasystole contraction,[1],1 (5.6)
same,"drug-related TEAEs, Cases",[1],16
same,CL/F (apparent clearance),[2]; [11],98.4 ± 46.96 L/h
same,t 1/2 (elimination half-life),[2]; [11],8.678 ± 3.6031 h
same,AUC0–t,[2]; [12],612.13 ± 315.720 ng·h/mL
same,AUC0–∞,[2]; [12],641.53 ± 319.538 ng·h/mL
same,C max,"[2]; SHR2554 50 mg co-administered with itraconazole 200 mg (Day 8; itraconazole 200 mg QD Days 4-12), fed",70.538 ± 25.0219 ng/mL
same,plasma concentration of all subjects at 96 h,[2]; SHR2554 50 mg combined with itraconazole 200 mg,below LLOQ
same,AUC_%Extrap (percentage of AUCINF_pred due to extrapolation from Tlast to infinity),[2]; [13],14.498 ± 2.9731 (20.51) [N = 8] %
same,CL/F (apparent clearance),[2]; [13],2127.7 ± 1592.02 L·h^−1 and 2127.7 ± 1592.02 (74.82) [N = 18] L·h^−1
same,T max,[2]; [13],"1.472 ± 0.6286 (0.50, 3.00) [N = 18] h"
same,V z /F,[2]; [13],8439.2 ± 3779.31 (44.78) [N = 18] L
same,t 1/2 (elimination half-life),[2]; [13],"3.287 ± 1.0636 (1.76, 5.94) [N = 18] h"
same,AUC0–t,[2]; [14],28.70 ± 18.913 (65.90) [N = 18] h·ng·ml^−1
same,AUC0–∞,[2]; [14],50.99 ± 19.358 (37.97) [N = 8] h·ng·ml^−1
same,C max,[2]; [14],10.197 ± 7.0262 (68.91) [N = 18] ng·ml^−1
same,adjusted geometric mean ratio of SHR2554 AUC0–t (co-administration with itraconazole / SHR2554 alone),[2]; [15],23.75 fold
same,adjusted geometric mean ratio of SHR2554 AUC0–∞ (co-administration with itraconazole / SHR2554 alone),[2]; [15],12.47 fold
same,adjusted geometric mean ratio of SHR2554 C max (co-administration with itraconazole / SHR2554 alone),[2]; [15],7.73 fold
same,plasma concentration of all subjects at 24 h after administration,"[2]; single-dose phase of SHR2554 50 mg, assay range 1–2000 ng·ml^−1",below lower limit of quantitation
same,electrocardiogram finding in some subjects,"[3]; completed or ongoing clinical trials of SHR2554, clinically controllable, no reference given",prolongation of the QT interval of the electrocardiogram
same,most common drug-related TEAEs in hematology,[3]; [16],"decreased white blood cell count, thrombocytopenia, neutropenia, and hyperlipidemia, increased aspartate aminotransferase level, hypertension, elevated alanine aminotransferase, anemia"
same,non-hematological common drug-related TEAEs,[3]; [16],nausea and fatigue
same,enzyme catalysing the oxidative metabolism,CYP3A4 [4],mainly metabolized by CYP3A4; also recorded: mainly catalyzed by CYP3A4
same,permeability,Caco‐2 cell model,low permeability
same,induction of the expression of the CYP3A4 enzyme,CYP3A4 [5],only high concentration SHR2554 can induce
same,serum and tumor systemic exposure as fraction of that of EPZ-6438,tumor,about one‐fifth
same,tumor inhibition rate relative to the reference compound EPZ-6438,tumor,higher
same,inhibition of the activity of wild-type and mutant EZH2 enzymes,[6],potently inhibits
same,"IC50 for inhibiting cell H3K27Me3 and cell proliferation, relative to EPZ-6438",[7],comparable or even better
same,"anti-tumor activity in vitro, relative to EPZ-6438 (tazemetostat)",[7],comparable
same,subjects with grade four neutropenia reported as SAE/DLT,"[8]; 350 mg group, ref NCT03603951",one
same,subjects with grade three and four decreased platelet counts reported as SAE/DLT,"[8]; 400 mg BID group, as of January 3, 2020, ref NCT03603951",two
same,safety at doses below 300 mg BID (including 300 mg BID),"[8]; no drug-related SAE or DLT, previous clinical studies, ref NCT03603951",good and good safety profile
same,recommended phase II dose,"[8]; previous clinical studies, ref NCT03603951",350 mg BID
same,increase of exposure relative to increase of dose,"[8]; range of 50–400 mg BID, ref NCT03603951",higher than that of the administered dose
same,subjects with grade two anemia reported as SAE,[8]; ref NCT03741712,one
same,inhibitory effect on CYP3A4,CYP3A4 [9],weak inhibitory effect
CC[C@H](C)C(=O)O[C@H]1C[C@@H](C)C=C2C=C[C@H](C)[C@H](CC[C@@H](O)C[C@@H](O)CC(=O)O)[C@H]21 [lovastatin (acid)],change in the AUC with itraconazole,[10]; itraconazole dose 100 mg,15 fold
same,change in the AUC with itraconazole,[10]; itraconazole dose 200 mg,20 fold
"CCN(c1cc(-c2ccc(CN3CCOCC3)cc2)cc(C(=O)NCc2c(C)cc(C)[nH]c2=O)c1C)C1CCOCC1 [tazemetostat, reference compound]",adverse effects in clinical trial,[3],"thrombocytopenia, neutropenia, and anemia"
"CC[C@H](C)n1cc(C)c2c(C(=O)NCc3c(C)cc(C)[nH]c3=O)cc(-c3ccc(N4CCNCC4)nc3)cc21 [GSK2816126, reference compound]",most common adverse reactions in clinical trial,[3],fatigue and nausea
"CCC(C)n1ncn(-c2ccc(N3CCN(c4ccc(OCC5COC(Cn6cncn6)(c6ccc(Cl)cc6Cl)O5)cc4)CC3)cc2)c1=O (stereo not shown) [Itraconazole, itraconazole]","Itraconazole‐related TEAEs, Cases",[1]; human,2
same,"Itraconazole‐related TEAEs, Number of subjects (%)",[1]; human,2 (11.1)
same,"SHR2554‐related TEAEs, Cases",[1]; human,1
same,"SHR2554‐related TEAEs, Number of subjects (%)",[1]; human,1 (5.6)
same,"TEAEs, Cases",[1]; human,2
same,"TEAEs, Number of subjects (%)",[1]; human,2 (11.1)
same,"TEAEs, Total",[1]; human,2 (11.1)
same,TEAEs: All kinds of inspection,[1]; human,1 (5.6)
same,TEAEs: Appendicitis,[1]; human,0
same,TEAEs: Blood in the urine,[1]; human,0
same,TEAEs: Cardiac organ diseases,[1]; human,0
same,TEAEs: Hematuria,[1]; human,0
same,TEAEs: High blood uric acid,[1]; human,0
same,TEAEs: Increased blood bilirubin,[1]; human,0
same,TEAEs: Increased blood triglyceride,[1]; human,1 (5.6)
same,TEAEs: Increased heart rate,[1]; human,0
same,TEAEs: Infectious diseases,[1]; human,0
same,TEAEs: Kidney and urinary system diseases,[1]; human,0
same,TEAEs: Positive bacterial tests,[1]; human,0
same,TEAEs: Positive urine leukocyte,[1]; human,0
same,TEAEs: Rash,[1]; human,1 (5.6)
same,TEAEs: Skin and subcutaneous tissue diseases,[1]; human,1 (5.6)
same,TEAEs: Spermaturia,[1]; human,0
same,TEAEs: Supraventricular extrasystole contraction,[1]; human,0
same,"drug-related TEAEs, Cases",[1]; human,6
same,"drug-related TEAEs, Cases",[1],six
